Measurements published in patent US20230167073A1 (Teijin Pharma Limited, priority 2020, published 2023).

Molecular target: T1, Human TRPC6 (Homo sapiens, UniProt Q9Y210)
T1 construct: expressed in transfected cells
T1 sequence (Q9Y210 1-931): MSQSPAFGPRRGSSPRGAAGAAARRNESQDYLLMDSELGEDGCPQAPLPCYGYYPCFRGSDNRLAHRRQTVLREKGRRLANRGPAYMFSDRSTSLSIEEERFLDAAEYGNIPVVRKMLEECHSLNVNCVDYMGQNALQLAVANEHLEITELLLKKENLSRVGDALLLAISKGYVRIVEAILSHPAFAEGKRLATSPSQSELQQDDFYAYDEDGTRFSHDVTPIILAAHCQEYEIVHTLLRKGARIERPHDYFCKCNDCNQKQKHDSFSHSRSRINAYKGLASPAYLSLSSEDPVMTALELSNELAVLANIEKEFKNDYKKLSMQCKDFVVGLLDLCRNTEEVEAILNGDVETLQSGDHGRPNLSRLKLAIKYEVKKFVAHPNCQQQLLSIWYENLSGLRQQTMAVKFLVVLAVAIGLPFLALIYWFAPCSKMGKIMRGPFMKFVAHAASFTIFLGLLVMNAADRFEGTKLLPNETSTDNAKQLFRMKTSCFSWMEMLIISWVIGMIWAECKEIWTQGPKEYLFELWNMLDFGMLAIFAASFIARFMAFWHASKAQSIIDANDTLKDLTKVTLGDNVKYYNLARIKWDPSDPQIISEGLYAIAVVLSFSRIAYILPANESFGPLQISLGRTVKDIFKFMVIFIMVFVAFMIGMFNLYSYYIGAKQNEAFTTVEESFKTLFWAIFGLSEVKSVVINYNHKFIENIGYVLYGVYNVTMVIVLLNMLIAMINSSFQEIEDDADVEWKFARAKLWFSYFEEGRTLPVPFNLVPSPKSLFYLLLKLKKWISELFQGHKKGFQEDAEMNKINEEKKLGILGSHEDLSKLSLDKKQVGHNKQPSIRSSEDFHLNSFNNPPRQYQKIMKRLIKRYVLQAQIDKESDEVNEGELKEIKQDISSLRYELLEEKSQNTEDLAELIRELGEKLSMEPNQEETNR
Experiment: Evaluation of TRPC6 channel inhibitory activity (2), HEK293 cells with stably introduced human TRPC6, OAG stimulation, FLIPR tetra (Compound Nos. 1293 to 1405)
Format: cell-based
Conditions: HEK293 cells with stably introduced human TRPC6, OAG 50 μM/0.5% DMSO, read-out: Inhibitory activity (pIC50 class) (converted)
Outline: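 Calcium-dye-loaded HEK293 cells stably expressing human TRPC6 were pretreated with compound for 25 min, then stimulated with 50 μM OAG (0.5% DMSO) in Ca ringer buffer pH 7.2 with 2 mM CaCl2. Background-subtracted FLIPR calcium peaks were normalized to OAG (100%) and buffer (0%); pIC50 came from four-parameter logistic fit, binned as +/++/+++.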

IC50 [nM] | SMILES
> 1000 | CNc1ccc(-c2ccc(C#N)cc2Oc2cc(C)nc(N3CCOCC3)c2)nc1 [compound 1307, 4-[5-(methylamino)pyridin-2-yl]-3-(2-methyl-6-morpholin-4-ylpyridin-4-yl)oxybenzonitrile]
< 10 | Cc1cc(Oc2cc(C#N)ccc2-c2ccc([C@H](F)CN)cn2)cc(N2CCOCC2)n1 [compound 1300, 4-[5-[(1S)-2-amino-1-fluoroethyl]pyridin-2-yl]-3-(2-methyl-6-morpholin-4-ylpyridin-4-yl)oxybenzonitrile]
10 to 1000 | Cc1nc(Oc2cc(Cl)ccc2-c2ncc([C@@H](F)CN)cn2)cc(N2CCOCC2)n1 [compound 1374, (2R)-2-[2-[4-chloro-2-(2-methyl-6-morpholin-4-ylpyrimidin-4-yl)oxyphenyl]pyrimidin-5-yl]-2-fluoroethanamine]
< 10 | Cn1nc(-c2ccccn2)cc1Oc1cc(C#N)ccc1-c1ccc(C(F)(F)CN)cn1 [compound 1312, 4-[5-(2-amino-1,1-difluoroethyl)pyridin-2-yl]-3-(2-methyl-5-pyridin-2-ylpyrazol-3-yl)oxybenzonitrile]
10 to 1000 | COc1nc(-c2ccc(C#N)cc2Oc2cc(-c3ccccn3)nn2C)ccc1CN [compound 1310, 4-[5-(aminomethyl)-6-methoxypyridin-2-yl]-3-(2-methyl-5-pyridin-2-ylpyrazol-3-yl)oxybenzonitrile]
10 to 1000 | COc1nc(-c2ccc(C#N)cc2Oc2cc(-c3ccccn3)nn2C)ncc1[C@H](O)CN [compound 1328, 4-[5-[(1S)-2-amino-1-hydroxyethyl]-4-methoxypyrimidin-2-yl]-3-(2-methyl-5-pyridin-2-ylpyrazol-3-yl)oxybenzonitrile]
< 10 | Cn1nc(C2CCOCC2)cc1Oc1cc(Cl)ccc1-c1ccc(CN)cn1 [compound 1361, [6-[4-chloro-2-[2-methyl-5-(oxan-4-yl)pyrazol-3-yl]oxyphenyl]pyridin-3-yl]methanamine]
10 to 1000 | Cn1nc(C2CCOCC2)cc1Oc1cc(C#N)ccc1-c1ccc(C(F)(F)CN)cn1 [compound 1400, 4-[5-(2-amino-1,1-difluoroethyl)pyridin-2-yl]-3-[2-methyl-5-(oxan-4-yl)pyrazol-3-yl]oxybenzonitrile]
< 10 | Cn1nc(-c2ccccn2)cc1Oc1cc(C#N)ccc1-c1ccc([C@H](F)CN)cn1 [compound 1302, 4-[5-[(1S)-2-amino-1-fluoroethyl]pyridin-2-yl]-3-(2-methyl-5-pyridin-2-ylpyrazol-3-yl)oxybenzonitrile]
< 10 | Cc1cc(Oc2cc(C#N)ccc2-c2ccc([C@@H](F)CN)cn2)cc(N2CCOCC2)n1 [compound 1299, 4-[5-[(1R)-2-amino-1-fluoroethyl]pyridin-2-yl]-3-(2-methyl-6-morpholin-4-ylpyridin-4-yl)oxybenzonitrile]
< 10 | Cc1cc(Oc2cc(C#N)ccc2-c2ccc(CN)c(C)n2)cc(N2CCOCC2)n1 [compound 1304, 4-[5-(aminomethyl)-6-methylpyridin-2-yl]-3-(2-methyl-6-morpholin-4-ylpyridin-4-yl)oxybenzonitrile]
10 to 1000 | Cc1cc(Oc2cc(Cl)ccc2-c2ncc([C@H](O)CN)cn2)cc(N2CCOCC2)n1 [compound 1349, (1S)-2-amino-1-[2-[4-chloro-2-(2-methyl-6-morpholin-4-ylpyridin-4-yl)oxyphenyl]pyrimidin-5-yl]ethanol]

Second part, the compound before the results:

SMILES | IC50 [nM]
Cn1nc(-c2ccccn2)cc1Oc1cc(Cl)ccc1-c1ccc([C@@H](O)CN)cn1 [compound 1401, (1R)-2-amino-1-[6-[4-chloro-2-(2-methyl-5-pyridin-2-ylpyrazol-3-yl)oxyphenyl]pyridin-3-yl]ethanol] | 10 to 1000
Cn1nc(C2CC2)cc1Oc1cc(F)ccc1-c1ncc(C(F)CN)cn1 (stereo in doubt) [compound 1381, (2S)-2-[2-[2-(5-cyclopropyl-2-methylpyrazol-3-yl)oxy-4-fluorophenyl]pyrimidin-5-yl]-2-fluoroethanamine] | > 1000
Cn1nc(-c2ccccn2)cc1Oc1cc(Cl)ccc1-c1ncc(CN)cn1 [compound 1323, [2-[4-chloro-2-(2-methyl-5-pyridin-2-ylpyrazol-3-yl)oxyphenyl]pyrimidin-5-yl]methanamine] | < 10
Cn1nc(-c2ccccn2)cc1Oc1cc(Cl)ccc1-c1ccc([C@@H](N)CO)cn1 [compound 1363, (2R)-2-amino-2-[6-[4-chloro-2-(2-methyl-5-pyridin-2-ylpyrazol-3-yl)oxyphenyl]pyridin-3-yl]ethanol] | > 1000
Cn1nc([C@@H]2CCOC2)cc1Oc1cc(Cl)ccc1-c1ncc(CN)cn1 [compound 1356, [2-[4-chloro-2-[2-methyl-5-[(3S)-oxolan-3-yl]pyrazol-3-yl]oxyphenyl]pyrimidin-5-yl]methanamine] | 10 to 1000
Cn1nc(-c2ccccn2)cc1Oc1cc(C#N)cnc1-c1ccc(CCN)cc1 [compound 1331, 6-[4-(2-aminoethyl)phenyl]-5-(2-methyl-5-pyridin-2-ylpyrazol-3-yl)oxypyridine-3-carbonitrile] | > 1000
Cn1nc(C2CC2)cc1Oc1cc(Cl)ccc1-c1ncc(CN)cn1 [compound 1355, [2-[4-chloro-2-(5-cyclopropyl-2-methylpyrazol-3-yl)oxyphenyl]pyrimidin-5-yl]methanamine] | 10 to 1000
Cn1nc(-c2ccccn2)cc1Oc1cc(F)ccc1-c1ncc([C@@H](F)CN)cn1 [compound 1342, (2R)-2-fluoro-2-[2-[4-fluoro-2-(2-methyl-5-pyridin-2-ylpyrazol-3-yl)oxyphenyl]pyrimidin-5-yl]ethanamine] | 10 to 1000
Cn1nc(C2CCOCC2)cc1Oc1cc(Cl)ccc1-c1ncc(CN)cn1 [compound 1362, [2-[4-chloro-2-[2-methyl-5-(oxan-4-yl)pyrazol-3-yl]oxyphenyl]pyrimidin-5-yl]methanamine] | 10 to 1000
Cn1nc(-c2ccccn2)cc1Oc1cc(Cl)ccc1-c1ncc([C@H](F)CN)cn1 [compound 1324, (2S)-2-[2-[4-chloro-2-(2-methyl-5-pyridin-2-ylpyrazol-3 yl)oxyphenyl]pyrimidin-5-yl]-2-fluoroethanamine] | < 10
Cn1nc(C2CC2)cc1Oc1cc(F)ccc1-c1ncc([C@@H](F)CN)cn1 [compound 1382, (2R)-2-[2-[2-(5-cyclopropyl-2-methylpyrazol-3-yl)oxy-4-fluorophenyl]pyrimidin-5-yl]-2-fluoroethanamine] | 10 to 1000
Cn1nc(-c2ccccn2)cc1Oc1cc(Cl)ccc1-c1ccc([C@H](N)C(F)(F)F)cn1 [compound 1379, (1S)-1-[6-[4-chloro-2-(2-methyl-5-pyridin-2-ylpyrazol-3-yl)oxyphenyl]pyridin-3-yl]-2,2,2-trifluoroethanamine] | > 1000
Cn1nc(-c2ccccn2)cc1Oc1cc(C#N)ccc1-c1nc(Cl)ccc1CN [compound 1333, 4-[3-(aminomethyl)-6-chloropyridin-2-yl]-3-(2-methyl-5-pyridin-2-ylpyrazol-3-yl)oxybenzonitrile] | 10 to 1000
Cn1nc(-c2ccccn2)cc1Oc1cc(Cl)cc(F)c1-c1ccc(CN)cn1 [compound 1404, [6-[4-chloro-2-fluoro-6-(2-methyl-5-pyridin-2-ylpyrazol-3-yl)oxyphenyl]pyridin-3-yl]methanamine] | < 10
